Experimental data: publication PMC4823272 (Frontiers in Microbiology, 2016)

Key:
[1] = tested on: IFV (H1N1, A/Puerto Rico/8/34); assay: rRT-PCR quantification of IFV captured on membranes; assay type: binding, influenza virus A/Puerto Rico/8/34 (H1N1); details: 1600 pfu incubated 1 h at 25°C; plastic plates; estimated from rRT-PCR standard curve (M gene, R^2 0.954)
Method: The pep-PE/DOPC (50:50) lipid monolayer was attached horizontally to plastic plates as described above. […] After washing with PBS, plates were incubated with AVL viral lysis buffer (QIAamp Viral RNA Mini Kit, QIAGEN) for 10 min. Viral RNA was extracted according to the manufacturer's instructions.
One-step RT-PCR was performed using QuantiTect SYBR Green PCR Kit (QIAGEN) with forward and reverse primers for the sequences of the matrix protein (M) gene for 244 bp (forward M30F2/08: 5′-[…] -3′; reverse M264R3/08: 5′-[…] -3′; Eisfeld et al., [2014]). The reaction was performed using a PikoReal Real-Time PCR system (TCR0096, Thermo Scientific). PCR was set up in a 10-μL reaction volume containing 5 μL of 2 × QuantiTect SYBR Green RT-PCR master mix, 0.1 μL of QuantiTect RT Mix, 0.5 μL of RNA template, 1 μL of forward and reverse primers (10 μM each), and 3.4 μL of RNase free water. […] Fluorescence was measured at the end of each cycle. […] A melting curve analysis consisted of 60°C for 30 s, and followed by a temperature increase to 95°C for 10 s with the continuous reading of fluorescence. The amplified products were analyzed by agarose gel electrophoresis (2.5% agarose) and detected by staining with ethidium bromide (Supplementary Figure 3A). […]

[2] = tested on: IFV; details: ref Matsubara et al., [2010]; cited from earlier work
Text: The first step in the infection of cells by IFV is the binding of HA to sialic acid-containing glycoconjugates (Skehel and Wiley, [2000]). Human HA strains preferentially bind to the terminal sialylgalactose structure (Neu5Acα2−6Gal), whereas avian and equine strains bind to the corresponding Neu5Acα2−3Gal (Suzuki, [2005]).

[3] = tested on: HA; details: cited from earlier work

In the case of `CCCCCCCC/C=C\CCCCCCCC(=O)OC[C@H](COP(=O)([O-])OCC[N+](C)(C)C)OC(=O)CCCCCCC/C=C\CCCCCCCC` [DOPC, Dioleoylphosphatidylcholine], the “amount of virus captured on the membrane” value [1] is reported as 100 pfu.
For Ala-Arg-Leu-Pro-Arg, the “inhibition of IFV infection in cells” value [2] is given as “exerts the inhibitory effects on IFV infection in cells” and the “binding to receptor-binding site of HA” value ([3]; ref Matsubara et al., [2010]) is given as “binds to the receptor-binding site of HA by mimicking sialic acid”.
In the case of Neu5Acα2–3Galβ1–4Glcβ1–1′Cer [GM3], the “HA binding to GM3” value ([3]; ref Suzuki et al., [1986], Sato et al., [1996]) is listed as “HA binds to GM3 through the sialyllactose structure”.
